Measured values taken from PMC9405123, “Design, Synthesis and Mechanistic Studies of Novel Isatin-Pyrazole Hydrazone Conjugates as Selective and Potent Bacterial MetAP Inhibitors” (Antibiotics, 2022).
≈ marks a conversion by molar mass, not a printed value. Read-outs that look alike come from different tables or passages of the source.

Assays:
[1] = system: Staphylococcus aureus; conditions: cited from earlier work
[2] = system: P. aeruginosa; assay: Minimum bactericidal concentration; type: cell-based, Pseudomonas aeruginosa
[3] = system: S. aureus; assay: Combination study with AMP or CIP
[4] = system: E. coli; assay: Minimum inhibitory concentration (broth dilution); type: cell-based, Escherichia coli; conditions: Escherichia coli, alone, read-out: MIC
[5] = target: EfMetAP1a (Enterococcus faecalis, UniProt Q832M5); assay: MetAP enzyme inhibition, Morrison Ki (Met-AMC fluorescence); type: biochemical; conditions: Morrison Ki method
[6] = system: K. pneumoniae; assay: Minimum bactericidal concentration; type: cell-based, Klebsiella pneumonia
[7] = system: E. faecalis; assay: Growth inhibition screening (broth dilution); type: cell-based, Enterococcus faecalis
Method: (§1) In vitro screening of the compounds (PS1–14) was performed to assess the antibacterial activity against three Gram-positive (Staphylococcus aureus, Enterococcus faecalis and Bacillus subtilis,) and three Gram-negative (Pseudomonas aeruginosa, Klebsiella pneumonia and Escherichia coli) bacterial strains using the standard NCCLS broth dilution assay. The study’s standard drugs were ciprofloxacin (CIP) and ampicillin (AMP). Compounds were dissolved in a polar solvent (DMSO) and distributed into a 96-well plate in 200 µL of nutrient broth medium, with a final concentration of the compounds […] in each well. The bacterial cells (about 2.5 × 10^5 cells/mL) were inoculated into each well and incubated at 37 °C overnight. After incubation, the growth was measured by turbidity of the culture at 590 nm by spectrophotometer.

[8] = system: S. aureus; assay: Growth inhibition screening (broth dilution); type: cell-based, Staphylococcus aureus; conditions: Staphylococcus aureus
Method: as §1

[9] = system: S. aureus; assay: Minimum bactericidal concentration; type: cell-based, Staphylococcus aureus
[10] = system: K. pneumoniae; assay: Combination study with AMP or CIP
[11] = system: K. pneumoniae; assay: Growth inhibition screening (broth dilution); type: cell-based, Klebsiella pneumonia
Method: as §1

[12] = system: E. faecalis; assay: Combination study with AMP or CIP
[13] = system: B. subtilis; assay: Growth inhibition screening (broth dilution); type: cell-based, Bacillus subtilis
Method: as §1

[14] = system: B. subtilis; assay: Minimum bactericidal concentration; type: cell-based, Bacillus subtilis
[15] = system: E. coli; assay: Combination study with AMP or CIP
[16] = system: E. faecalis; assay: Minimum inhibitory concentration (broth dilution); type: cell-based; conditions: Enterococcus faecalis, alone
[17] = target: T1, HsMetAP1b (Homo sapiens, UniProt P53582); assay: MetAP enzyme inhibition, Morrison Ki (Met-AMC fluorescence); type: biochemical, H. sapiens; conditions: Morrison Ki method
T1 construct: made in house

[18] = system: E. faecalis; assay: Minimum bactericidal concentration; type: cell-based, Enterococcus faecalis
[19] = system: P. aeruginosa; assay: Minimum inhibitory concentration (broth dilution); type: cell-based; conditions: Pseudomonas aeruginosa, alone
[20] = system: E. coli; assay: Minimum bactericidal concentration; type: cell-based, Escherichia coli
[21] = system: P. aeruginosa; assay: Combination study with AMP or CIP
[22] = target: SpMetAP1a (Streptococcus pneumoniae, UniProt Q8DPV1); assay: MetAP enzyme inhibition, Morrison Ki (Met-AMC fluorescence); type: biochemical; conditions: Morrison Ki method
[23] = target: T2, MtMetAP1c (Mycobacterium tuberculosis, UniProt P9WK19); assay: as above; type: biochemical, M. tuberculosis; conditions: Morrison Ki method
T2 construct: made in house
Method: MetAP appears to serve a vital role in the co- or post-translational modification of proteins, making it essential for bacterial cell metabolism and survival. In this study, all enzymes, which were used for this study, including MtMetAP1c (M. tuberculosis), EfMetAP1a (E. faecalis), SpMetAP1a (S. pneumoniae) and HsMetAP1b (H. sapiens) enzymes, were expressed and purified in our lab as previously reported. All compounds prepared 10 mM stocks in DMSO and were used for enzyme inhibition studies. The concentration of each enzyme is adjusted such that they have similar reaction rates (HsMetAp1b, 1 µM; SpMetAP1a, 5 µM; EfMetAP1a, 1 µM; MtMetAP1c, 1 µM;) as reported earlier. All assays were performed in […] reaction containing 50 mM HEPES (pH 7.5 for SpMetAP1a and HsMetAP1b; 8.0 for EfMetAP1a, MtMetAP1c, […]), 150 mM NaCl, and CoCl2 (three molar equivalents of corresponding enzymes). The reaction was started by adding 50 μM L-Methionine 7-amido-4-methyl coumarin (Met-AMC) and continuously monitoring the fluorescence of released 7-amino-4-methyl coumarin (AMC) (380 nm excitation and 460 nm emission) in a microplate multimode reader (TECAN, Austria). The maximum percentage of inhibition against enzymes is calculated at […] compound concentration. […] The Ki values were determined according to the Morrison method using three different concentrations of substrates and ten different concentrations of the inhibitor. All experiments were performed in triplicate. GraphPad Prism version 8.0.0 (San Diego, CA, USA) was used to determine all the kinetic parameters.

[24] = system: E. coli; assay: Growth inhibition screening (broth dilution); type: cell-based, Escherichia coli
Method: as §1

[25] = system: P. aeruginosa; assay: Growth inhibition screening (broth dilution); type: cell-based, Pseudomonas aeruginosa
Method: as §1

[26] = system: S. aureus; assay: Minimum inhibitory concentration (broth dilution); type: cell-based; conditions: Staphylococcus aureus, alone
[27] = system: K. pneumoniae; assay: Minimum inhibitory concentration (broth dilution); type: cell-based, Klebsiella pneumonia; conditions: Klebsiella pneumoniae, alone, read-out: MIC
[28] = system: B. subtilis; assay: Combination study with AMP or CIP
[29] = system: B. subtilis; assay: Minimum inhibitory concentration (broth dilution); type: cell-based; conditions: Bacillus subtilis, alone

Sequence of SpMetAP1a (Q8DPV1 entry or part of it): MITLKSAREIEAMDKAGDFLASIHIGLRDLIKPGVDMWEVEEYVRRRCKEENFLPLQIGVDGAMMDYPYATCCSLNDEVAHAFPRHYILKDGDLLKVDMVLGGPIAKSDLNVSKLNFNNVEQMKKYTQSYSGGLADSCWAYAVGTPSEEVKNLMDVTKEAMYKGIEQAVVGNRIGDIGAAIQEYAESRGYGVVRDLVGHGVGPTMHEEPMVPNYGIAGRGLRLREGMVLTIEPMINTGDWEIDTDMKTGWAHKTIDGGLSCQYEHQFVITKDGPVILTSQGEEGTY
T2 sequence (P9WK19 whole entry): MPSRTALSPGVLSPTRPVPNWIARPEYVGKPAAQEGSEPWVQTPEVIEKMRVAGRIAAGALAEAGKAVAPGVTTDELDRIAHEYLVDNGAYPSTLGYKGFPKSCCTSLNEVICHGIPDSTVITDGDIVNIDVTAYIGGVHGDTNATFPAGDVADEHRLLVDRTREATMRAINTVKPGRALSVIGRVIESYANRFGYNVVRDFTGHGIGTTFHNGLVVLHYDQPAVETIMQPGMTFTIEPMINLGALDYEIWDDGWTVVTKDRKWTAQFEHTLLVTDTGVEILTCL
Sequence of EfMetAP1a (Q832M5 entry or part of it): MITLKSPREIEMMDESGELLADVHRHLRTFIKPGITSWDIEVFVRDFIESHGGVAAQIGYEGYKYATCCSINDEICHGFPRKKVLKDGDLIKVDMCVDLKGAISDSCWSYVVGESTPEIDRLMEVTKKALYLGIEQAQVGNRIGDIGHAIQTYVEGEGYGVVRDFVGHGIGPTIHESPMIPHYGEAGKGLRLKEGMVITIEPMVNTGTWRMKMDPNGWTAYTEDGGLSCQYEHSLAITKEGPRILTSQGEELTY

O=C1Nc2ccc(Cl)cc2/C1=N/NC(=O)c1ccc(N2C(=O)/C(=C\c3ccccc3)N=C2c2ccccc2)cc1 [B]
MIC [1]: 12 µg/mL (≈ 22 µM)

COc1ccc([C@]2(C)[C@@H](Cl)C(=O)N2NC(=O)c2cc(-c3ccc(Cl)cc3)n[nH]2)cc1 [C]
MIC [1]: 0.0025 µg/mL (≈ 0.00561 µM)

Cn1nc(C(=O)NC(=O)Nc2ccccc2)c(C(=O)c2ccccc2)c1-c1ccccc1 [D]
MIC [1]: 310 µg/mL (≈ 730 µM)

O=C1Nc2cc(Cl)c(F)cc2/C1=N\NC(=O)c1cc(-c2cccc(Br)c2)n[nH]1 [PS6, (E)-3-(3-Bromophenyl)-N′-(6-Chloro-5-Fluoro-2-Oxoindolin-3-Ylidene)-1H-Pyrazole-5-Carbohydrazide]
MBC/MIC Ratio (R*) [2]: 8
MBC ([2]; Pseudomonas aeruginosa): 256 µg/mL (≈ 553 µM)
MIC in Combination ([3]; combination PS6 + AMP): 1 µg/mL
MIC in Combination ([3]; combination PS6 + CIP): 8 µg/mL
FICI ([3]; combination with AMP): 0.31
FICI ([3]; combination with CIP): 1
Mode of Interaction ([3]; combination with CIP): Indifferent (in between 0.5 and 4)
MIC [4]: 32 µg/mL (≈ 69.2 µM)
Ki [5]: 1.65 ± 0.31 µM
MBC/MIC Ratio (R*) [6]: 2
MBC ([6]; Klebsiella pneumoniae): 128 µg/mL (≈ 277 µM)
inhibition at 250 µg/mL ([7]; Enterococcus faecalis): > 70%
% Growth Inhibition at 250 µg/mL ([7]; listed as C00006): 73%
inhibition at 250 µg/mL [8]: 61%
MBC/MIC Ratio (R*) [9]: 32
MBC ([9]; Staphylococcus aureus): 512 µg/mL (≈ 1110 µM)
MIC in Combination ([10]; combination PS6 + AMP): 4 µg/mL
MIC in Combination ([10]; combination PS6 + CIP): 8 µg/mL
FICI ([10]; combination with AMP): 0.18
FICI ([10]; combination with CIP): 0.62
Mode of Interaction ([10]; combination with CIP): Indifferent (in between 0.5 and 4)
inhibition at 250 µg/mL ([11]; Klebsiella pneumoniae): > 70%
% Growth Inhibition at 250 µg/mL ([11]; listed as C00006): 80%
MIC in Combination ([12]; combination PS6 + AMP): 1 µg/mL
MIC in Combination ([12]; combination PS6 + CIP): 4 µg/mL
FICI ([12]; combination with AMP): 0.09
FICI ([12]; combination with CIP): 0.31
% Growth Inhibition at 250 µg/mL [13]: more than 70%
% Growth Inhibition at 250 µg/mL ([13]; listed as C00006): 100%
MBC/MIC Ratio (R*) [14]: 2
MBC ([14]; Bacillus subtilis): 16 µg/mL (≈ 34.6 µM)
MIC in Combination ([15]; combination PS6 + AMP): 4 µg/mL
MIC in Combination ([15]; combination PS6 + CIP): 8 µg/mL
FICI ([15]; combination with AMP): 0.25
FICI ([15]; combination with CIP): 0.31
MIC [16]: 16 µg/mL (≈ 34.6 µM)
Ki [17]: 172 ± 4.8 µM
MBC/MIC Ratio (R*) [18]: 2
MBC ([18]; Enterococcus faecalis): 32 µg/mL (≈ 69.2 µM)
MIC [19]: 32 µg/mL (≈ 69.2 µM)
MBC/MIC Ratio (R*) [20]: 8
MBC ([20]; Escherichia coli): 256 µg/mL (≈ 553 µM)
MIC in Combination ([21]; combination PS6 + AMP): 4 µg/mL
MIC in Combination ([21]; combination PS6 + CIP): 4 µg/mL
FICI ([21]; combination with AMP): 0.25
FICI ([21]; combination with CIP): 0.25
Mode of Interaction ([21]; combination with CIP): Synergistic (FICI value is less than or equal to 0.5)
Ki [22]: 2.55 ± 0.11 µM
Ki [23]: 0.74 ± 0.06 µM
% Growth Inhibition at 250 µg/mL [24]: more than 70%
% Growth Inhibition at 250 µg/mL ([24]; listed as C00006): 97%
melting point: 191 to 194 °C
% Growth Inhibition at 250 µg/mL [25]: more than 70%
% Growth Inhibition at 250 µg/mL ([25]; listed as C00006): 100%
MIC [26]: 16 µg/mL (≈ 34.6 µM)
MIC [27]: 64 µg/mL (≈ 138 µM)
MIC in Combination ([28]; combination PS6 + AMP): 2 µg/mL
MIC in Combination ([28]; combination PS6 + CIP): 8 µg/mL
FICI ([28]; combination with AMP): 0.75
FICI ([28]; combination with CIP): 1.06
Mode of Interaction ([28]; combination with CIP): Indifferent (in between 0.5 and 4)
MIC [29]: 8 µg/mL (≈ 17.3 µM)
